pEC50, pIC50, pKd, pKi: −log10 of the molar value. Each block holds one molecule with its values, some of them ahead of it.
How the values were obtained:
HCT-116 [1] = test: Antiproliferative activity against human HCT-116 cells harboring KRAS G13D mutant assessed as cell growth inhibition measured after 96 hrs by MTT assay; format: functional
HCT-116 [2] = test: Antitumor activity against human HCT-116 cells xenografted in BALB/c nude mouse assessed as reduction in tumor size at 100 mg/kg measured twice a week for 21 days relative to control; format: functional; design: scale not given: the % may be the effect or the level left; conditions: time 21 day
HT-1080 = test: Antitumor activity against human HT-1080 cells xenografted in BALB/c nude mouse assessed as reduction in tumor size at 100 mg/kg measured twice a week for 21 days relative to control; format: functional; design: scale not given: the % may be the effect or the level left; conditions: time 21 day
GTPase KRas [3] = target: GTPase KRas (Homo sapiens, UniProt P01116, G12V); test: Binding affinity to GDP-bound KRAS G12V RAS mutant (unknown origin)
[4] = Lipophilicity, logP of the compound; format: physicochemical; conditions: octanol/water
SW480 = test: Antiproliferative activity against human SW480 cells assessed as cell growth inhibition by CCK-8 assay relative to control; format: functional
A549 [5] = test: Cytotoxicity against human A549 cells assessed as cell growth inhibition after 72 hrs by MTT assay; format: functional, cell-based; conditions: A549, 72 h
GTPase NRas = GTPase NRas (Homo sapiens, UniProt P01111); test: Binding affinity to NRAS (unknown origin) assessed as inhibition constant
A549 [6] = test: Cytotoxicity against human A549 cells assessed as cell growth inhibition after 72 hrs in presence of doxorubicin by MTT assay; format: functional, cell-based; conditions: A549, 72 h
GTPase HRas [7] = target: T1, GTPase HRas (Homo sapiens, UniProt P01112); test: Binding affinity to HRAS (unknown origin) assessed as inhibition constant
[8] = Antiproliferative activity against human cancer cell lines harboring wild type RAS mutation assessed as reduction in cell viability; format: functional, cell-based
HT-29 [9] = test: Cytotoxicity against human HT-29 cells assessed as cell growth inhibition after 72 hrs by MTT assay; format: functional, cell-based; conditions: HT-29, 72 h
[10] = Antiproliferative activity against human cancer cell lines harboring KRAS mutation assessed as reduction in cell viability; format: functional, cell-based
HT-29 [11] = test: Cytotoxicity against human HT-29 cells assessed as cell growth inhibition after 72 hrs in presence of doxorubicin by MTT assay; format: functional, cell-based; conditions: HT-29, 72 h
GTPase HRas [12] = target: T1, GTPase HRas; test: Inhibition of human p21 h-RAS assessed as reduction in C-Cdc25 stimulated nucleotide exchange by luminescence spectrometer based analysis
[13] = Reduction in KRAS-GTP mutant level in tumor of human PANC-1 cells xenografted nude mouse at 40 mg/kg, po administered daily for 10 days by immunoblot analysis relative to control; format: functional; design: scale not given: the % may be the effect or the level left; conditions: time 10 day
SK-MES-1 = test: Antitumor activity against human SK-MES-1 HTB-58 cells xenografted in athymic nude mouse assessed as reduction in tumour volume at 10 mg/kg, ip administered once daily measured after 24 days; format: functional; conditions: time 24 day
[14] = Toxicity in nude mouse xenografted with human PANC-1 cells assessed as reduction in body weight at 40 mg/kg, po administered daily for 10 days relative to control; format: organism-based; design: scale not given: the % may be the effect or the level left; conditions: in vivo, 240 h, time 10 day
A549 [15] = test: Antitumor activity against human A549 cells xenografted in athymic nude mouse assessed as reduction in tumour volume at 10 mg/kg, ip administered once daily measured after 24 days relative to control; format: functional; design: scale not given: the % may be the effect or the level left; conditions: time 24 day
[16] = Reduction in KRAS mutant level in tumor of human PANC-1 cells xenografted nude mouse at 40 mg/kg, po administered daily for 10 days by immunoblot analysis relative to control; format: functional; design: scale not given: the % may be the effect or the level left; conditions: time 10 day
Rat1 = test: Inhibition of cell growth in rat Rat1 cells transfected with HRAS; format: functional, cell-based
[17] = Reduction in phosphor-ERK mutant level in tumor of human PANC-1 cells xenografted nude mouse at 40 mg/kg, po administered daily for 10 days by immunoblot analysis relative to control; format: functional; design: scale not given: the % may be the effect or the level left; conditions: time 10 day
HT-29 [18] = test: Antiproliferative activity against human HT-29 cells assessed as reduction in cell growth at 100 uM measured after 7 days relative to control; format: functional; design: scale not given: the % may be the effect or the level left; conditions: time 7 day
A549 [19] = test: Antitumor activity against human A549 cells xenografted in athymic nude mice assessed as inhibition of tumor growth at 50 mg/kg, po administered daily measured after 16 days relative to control; format: functional; design: scale not given: the % may be the effect or the level left; conditions: time 16 day
[20] = Binding affinity to recombinant human KRAS (1 to 169 residues) expressed in Escherichia coli - recombinant human SOS1 (560 to 1049 residues) expressed in Escherichia coli assessed as dissociation constant
GTPase KRas [21] = target: GTPase KRas (Homo sapiens, UniProt P01116); test: Binding affinity to KRAS (unknown origin) assessed as dissociation constant
[22] = target: Protein farnesyltransferase subunit beta (Homo sapiens, UniProt P49356); test: Displacement of M [3H] farnesyl diphosphate from human PFTase expressed in Escherichia coli
Chain of Protein farnesyltransferase subunit beta (P49356 whole entry): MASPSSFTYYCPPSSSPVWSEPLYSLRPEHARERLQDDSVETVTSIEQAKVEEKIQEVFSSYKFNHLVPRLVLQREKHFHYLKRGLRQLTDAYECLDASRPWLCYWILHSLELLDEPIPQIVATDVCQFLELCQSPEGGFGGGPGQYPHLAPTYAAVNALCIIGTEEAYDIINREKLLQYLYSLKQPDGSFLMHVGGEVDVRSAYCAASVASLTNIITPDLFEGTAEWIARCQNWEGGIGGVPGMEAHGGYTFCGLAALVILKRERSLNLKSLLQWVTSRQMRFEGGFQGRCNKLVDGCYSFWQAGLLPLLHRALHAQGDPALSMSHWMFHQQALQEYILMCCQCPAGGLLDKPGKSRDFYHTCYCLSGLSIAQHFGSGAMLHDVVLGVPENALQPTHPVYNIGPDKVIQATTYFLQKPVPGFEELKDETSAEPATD

T1 sequence (P01112 whole entry): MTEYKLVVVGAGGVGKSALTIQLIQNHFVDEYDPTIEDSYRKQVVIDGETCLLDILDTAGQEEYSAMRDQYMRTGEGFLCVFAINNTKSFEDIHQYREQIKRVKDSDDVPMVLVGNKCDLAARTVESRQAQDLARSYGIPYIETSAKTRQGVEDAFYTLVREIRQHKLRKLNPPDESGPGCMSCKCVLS
Chain of GTPase KRas (Homo sapiens, UniProt P01116, G12V) (P01116 whole entry G12V): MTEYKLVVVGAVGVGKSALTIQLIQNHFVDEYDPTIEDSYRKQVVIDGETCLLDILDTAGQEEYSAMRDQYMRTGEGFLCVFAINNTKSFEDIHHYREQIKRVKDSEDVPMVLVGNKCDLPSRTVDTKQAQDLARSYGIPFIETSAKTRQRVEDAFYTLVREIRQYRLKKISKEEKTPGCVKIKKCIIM
Chain of GTPase KRas (Homo sapiens, UniProt P01116) (P01116 whole entry): as the sequence (P01116 whole entry G12V) above, with V12G counted along it
Chain of GTPase NRas (P01111 whole entry): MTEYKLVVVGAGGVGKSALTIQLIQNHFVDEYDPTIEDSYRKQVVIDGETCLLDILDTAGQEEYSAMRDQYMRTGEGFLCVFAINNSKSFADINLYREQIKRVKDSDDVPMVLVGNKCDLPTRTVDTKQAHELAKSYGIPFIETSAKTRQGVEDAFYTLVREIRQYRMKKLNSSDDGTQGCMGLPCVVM

GI50 (HCT-116 [1]): 4.5 µM
SMILES: C=C1CC[C@@H]2[C@](C)(CO)[C@H](O)CC[C@@]2(C)[C@@H]1C/C=C1/C(=O)OC[C@H]1O [ANDROGRAPHOLIDE]

SMILES: COC(=O)[C@H](CCSC)CC(=O)[C@H](/C=C\[C@@H](/C=C/[C@@H](N)CS)C(C)C)Cc1ccccc1
Activity (HCT-116 [2]): 20%
Activity (HT-1080): 40%

SMILES: Nc1nc2c(ncn2CCN(CCOc2ccc3ccccc3c2)S(=O)(=O)c2ccc(NO)cc2)c(=O)[nH]1
pIC50 (GTPase KRas [3]): 6.30

logP [4]: 2.6
GI50 (HCT-116 [1]): 3.1 µM
SMILES: C=C1CC[C@@H]2[C@]3(C)COC(c4ccccc4Br)O[C@@H]3CC[C@@]2(C)[C@@H]1C/C=C1/C(=O)OC[C@H]1O (some centres not stated)

SMILES: CNC(=O)c1cc(Oc2ccc(NC(=O)Nc3ccc(Cl)c(C(F)(F)F)c3)cc2)ccn1 [SORAFENIB]
inhibition (INH) (SW480): 83.8%

pKi (GTPase NRas): 9.52
pKi (GTPase HRas [7]): 8.80
SMILES: N#Cc1ccc(Cn2cncc2CN2CCN(c3cccc(Cl)c3)C(=O)C2)cc1 [L-778123 FREE BASE]
pIC50 (A549 [5]): 4.00
pIC50 (A549 [6]): 5.76
pIC50 [8]: 7.15
pIC50 (HT-29 [9]): 3.90
pIC50 [10]: 5.64
pIC50 (HT-29 [11]): 5.82

pIC50 (GTPase HRas [12]): 4.45
SMILES: [O-][S+](NC[C@@H]1CC2O[C@H](OCc3ccccc3)[C@@H](OCc3ccccc3)C2O1)c1ccc(NO)cc1 (some centres not stated)

SMILES: O=S(=O)(c1ccc(NO)cc1)N(CCOc1ccc2ccccc2c1)[C@@H]1O[C@H](CO)[C@@H](O)[C@H](O)[C@H]1O
pIC50 (GTPase KRas [3]): 6.15

SMILES: CC(C)=CCC/C(C)=C/CC/C(C)=C/CSc1ccccc1C(=O)O [SALIRASIB]
Activity [13]: 64%
Activity (SK-MES-1): 0.03 cm3
Activity [14]: 67%
Activity (A549 [15]): 53.8%
Activity [16]: 50%
pEC50 (Rat1): 5.12
Activity [17]: 84%
Activity (HT-29 [18]): 85%
Activity (A549 [19]): 53.7%

SMILES: Cc1ccc(NC(=S)NNc2c([N+](=O)[O-])cc(C(F)(F)F)cc2[N+](=O)[O-])cc1Cl
inhibition (INH) (SW480): 66.3%

logP [4]: 2.6
GI50 (HCT-116 [1]): 4 µM
SMILES: C=C1CC[C@@H]2[C@]3(C)COC(c4ccc(F)c(Br)c4)O[C@@H]3CC[C@@]2(C)[C@@H]1C/C=C1/C(=O)OC[C@H]1O (some centres not stated)

SMILES: CNCc1ccccc1-c1csc([C@@H](C)Nc2nc(C)nc3cc(OC)c(OC)cc23)c1 [BAY-293]
pKd [20]: 7.44

SMILES: c1ccc2[nH]cnc2c1 [BENZIMIDAZOLE]
pKd (GTPase KRas [21]): 2.82

pIC50 [22]: 8.74
SMILES: CC[C@@H](C)[C@@H](CO[C@@H](Cc1ccccc1)C(=O)CC(CCS(C)(=O)=O)C(=O)O)NC[C@@H](N)CS (some centres not stated)
